Test system: SEM cells
Assay: cell viability relative to DMSO control; higher = less cytotoxic
Conditions: 48 h
Procedure, shortened: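 Viability values are per-plate percentages of DMSO wells, with background from cell-free wells. Library compounds in DMSO were pin-dosed, in an 11-point threefold series from 47 μM to 0.79 nM, onto NOMO1 or SEM (500 cells/well) or P12-Ichikawa (1000 cells/well) leukemia cells in 1536-well plates (5 μl). Those cells had been adapted for at least four passages in each medium, and CellTiter-Glo One luminescence was read after 48 h at 37°C.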

[1] = HPLM + 10% dialyzed FBS, 0.000781 µM
[2] = HPLM + 10% dialyzed FBS, 0.00234 µM
[3] = HPLM + 10% dialyzed FBS, 0.00702 µM
[4] = HPLM + 10% dialyzed FBS, 0.0211 µM
[5] = HPLM + 10% dialyzed FBS, 0.0632 µM
[6] = HPLM + 10% dialyzed FBS, 0.19 µM
[7] = HPLM + 10% dialyzed FBS, 0.569 µM
[8] = HPLM + 10% dialyzed FBS, 1.71 µM
[9] = HPLM + 10% dialyzed FBS, 5.12 µM
[10] = HPLM + 10% dialyzed FBS, 15.4 µM
[11] = HPLM + 10% dialyzed FBS, 46.1 µM
[12] = RPMI 5 mM glucose + 10% FBS, 0.000781 µM
[13] = RPMI 5 mM glucose + 10% FBS, 0.00234 µM
[14] = RPMI 5 mM glucose + 10% FBS, 0.00702 µM
[15] = RPMI 5 mM glucose + 10% FBS, 0.0211 µM
[16] = RPMI 5 mM glucose + 10% FBS, 0.0632 µM
[17] = RPMI 5 mM glucose + 10% FBS, 0.19 µM
[18] = RPMI 5 mM glucose + 10% FBS, 0.569 µM
[19] = RPMI 5 mM glucose + 10% FBS, 1.71 µM
[20] = RPMI 5 mM glucose + 10% FBS, 5.12 µM
[21] = RPMI 5 mM glucose + 10% FBS, 15.4 µM
[22] = RPMI 5 mM glucose + 10% FBS, 46.1 µM
[23] = RPMI 5 mM glucose + 10% dialyzed FBS, 0.000781 µM
[24] = RPMI 5 mM glucose + 10% dialyzed FBS, 0.00234 µM
[25] = RPMI 5 mM glucose + 10% dialyzed FBS, 0.00702 µM
[26] = RPMI 5 mM glucose + 10% dialyzed FBS, 0.0211 µM
[27] = RPMI 5 mM glucose + 10% dialyzed FBS, 0.0632 µM
[28] = RPMI 5 mM glucose + 10% dialyzed FBS, 0.19 µM
[29] = RPMI 5 mM glucose + 10% dialyzed FBS, 0.569 µM
[30] = RPMI 5 mM glucose + 10% dialyzed FBS, 1.71 µM
[31] = RPMI 5 mM glucose + 10% dialyzed FBS, 5.12 µM
[32] = RPMI 5 mM glucose + 10% dialyzed FBS, 15.4 µM
[33] = RPMI 5 mM glucose + 10% dialyzed FBS, 46.1 µM

Structure (SMILES)	cell viability [1] [%]	cell viability [2] [%]	cell viability [3] [%]	cell viability [4] [%]	cell viability [5] [%]	cell viability [6] [%]	cell viability [7] [%]	cell viability [8] [%]	cell viability [9] [%]	cell viability [10] [%]	cell viability [11] [%]	cell viability [12] [%]	cell viability [13] [%]	cell viability [14] [%]	cell viability [15] [%]	cell viability [16] [%]	cell viability [17] [%]	cell viability [18] [%]	cell viability [19] [%]	cell viability [20] [%]	cell viability [21] [%]	cell viability [22] [%]	cell viability [23] [%]	cell viability [24] [%]	cell viability [25] [%]	cell viability [26] [%]	cell viability [27] [%]	cell viability [28] [%]	cell viability [29] [%]	cell viability [30] [%]	cell viability [31] [%]	cell viability [32] [%]	cell viability [33] [%]
Cc1ccc([S+](=O)([O-])OCC(=O)Nc2ccc(C(=O)O)c(O)c2)cc1	101	97.1	127	118	125	106	125	132	136	137	80.5	107	109	124	122	138	130	150	142	153	81.9	11.9	99.7	103	134	131	123	140	125	147	144	109	43.7
COC1=CC=C(C(=C1)OC(C)C)C/2=N/[C@@H]([C@@H](N2C(=O)N3CCNC(=O)C3)C4=CC=C(Cl)C=C4)C5=CC=C(Cl)C=C5	92.4	110	112	106	87.1	56.5	42.5	33.1	29.2	16.1	5.42	100	125	99.9	105	60.6	55.6	46.5	34.5	23.6	6.03	1.48	101	106	101	83.5	79.8	45.1	41.1	27.8	20.5	12.3	3.12
Cc1coc2c1C(=O)C(=O)c1c-2ccc2c1CCCC2(C)C	112	98.6	104	102	96.8	97	97.1	102	99.6	85.2	87.4	112	108	107	109	101	99.6	104	95.8	97.1	79.9	80.7	96.7	99.7	102	97.4	90.3	88	82.6	76	75.1	78.4	84.3
COc1ccc2c(c1)CN(C)CC2c1ccc(Cl)c(Cl)c1 (centres undefined)	78	104	121	102	122	109	133	117	126	117	58.7	95.5	112	140	108	136	136	131	123	128	125	74.5	89.2	109	133	104	138	168	157	150	143	141	109
CC[C@@H]([C@H](C)O)n1ncn(-c2ccc(N3CCN(c4ccc(OCC5CO[C@@](Cn6cncn6)(c6ccc(F)cc6F)C5)cc4)CC3)cc2)c1=O (some centres undefined)	92.3	110	107	107	114	100	107	100	102	59.1	82.7	96.7	101	109	105	105	115	93.8	103	86.9	87.7	78.2	112	111	108	124	106	105	106	115	102	90.7	81.8
NC(=O)c1ccc(N(C(N)=O)c2c(F)cccc2F)nc1-c1ccc(F)cc1F	85.2	81.2	88.2	79.5	89.5	94	106	99.7	88.5	51.7	77.5	116	88.8	80.1	97.4	119	95	89	104	102	52.3	94.9	87.6	86.7	89.4	94.7	93.2	94.9	88.3	100	92.1	41.1	66.8
COC(=O)c1ccc2c(c1)NC(=O)/C2=C(\Nc1ccc(N(C)C(=O)CN2CCN(C)CC2)cc1)c1ccccc1	76.7	79.4	60.3	30.1	48.9	50.9	46.4	38.3	37.9	30.5	23.8	96.1	92.7	84.2	31.7	68	60	57.5	43.8	41.3	36.7	24.5	82.9	83.2	60.1	30.8	49.2	44.6	38.7	35.9	30.2	29.8	25.4
CCCCOCCOc1nc(-c2ccc(C(=O)O)c(F)c2)sc1C	124	126	120	125	123	124	108	111	115	109	119	101	111	113	118	104	109	107	102	102	84.5	106	105	113	108	122	121	111	116	120	97.4	104	121
COc1cccc2c1C(=O)c1c(O)c3c(c(O)c1C2=O)C[C@@](O)(C(=O)CO)C[C@@H]3O[C@H]1C[C@H](N)[C@H](O)[C@H](C)O1	96.4	103	117	124	105	92.4	47.5	12.9	6.97	4.92	3.63												106	100	108	92	101	69.9	40.1	9.78	5.67	3.74	2.82
CN1\C=N/C2=CC=C(NC3=CC(=CC=C3C)NC(=O)C4=CC(=CC=C4)C(C)(C)C#N)C=C2C1=O	101	93.6	112	117	107	101	87.4	95.5	74.8	79.4	44.1	113	122	107	114	113	105	101	96.7	87.7	84.2	31.9	93.6	97.9	92.4	115	101	107	101	102	70	75.8	34.9
Cc1ccnc2c1NC(=O)c1cccnc1N2C1CC1	63.6	84.2	97.9	101	95.8	97.2	106	107	91.8	102	111	83.7	85.2	84.6	85.4	96.7	96.8	90.9	101	99.4	105	99.6	90.8	86.6	94.5	90.1	90.1	89.7	93	90.4	105	101	93.6
Oc1nc(-c2ccc(C(F)(F)F)cc2)nc2c1CSCC2	90.6	95.7	107	50.8	110	106	97.4	97.8	91.1	84.3	79.6	101	102	92.6	39.7	113	107	113	111	114	95.6	86	97.9	96.6	105	47	105	114	111	98.3	93.6	82.6	85.2
CC(=O)Oc1ccccc1C(=O)Nc1ncc([N+](=O)[O-])s1	85.4	88.9	89	91.3	84.3	107	98.3	104	96.9	93.1	66.3	85	100	92.6	101	90.5	107	94.7	101	104	85.4	79.6	87.1	93	99.6	100	108	106	101	104	100	94.2	82.7
CCOC(=O)\C1=C\[C@]2(CC)CCCN3CCC4=C([C@H]23)[N]1C5=C4C=CC=C5	71.6	100	87.6	111	118	103	104	111	114	97.7	80.7	103	104	111	114	121	112	110	108	109	107	77.1	93.7	111	112	108	116	124	126	108	118	105	94.7
Nc1c2c(nc3ccccc13)CCCC2	92.9	104	118	109	115	118	101	25.6	108	108	86.1	121	123	122	109	111	112	97.3	17.5	100	118	80.5	109	131	123	104	112	123	95.7	24.7	117	104	87.6
